Where no end group is shown, it is not given here.
System: RAW 264.7 cells
Test: MTT cell viability
Format: cell-based, mouse
Settings: up to 200 μM, 24 h
Experimental: RAW 264.7 cells (mouse macrophage cells) were maintained in high-glucose Dulbecco’s modified Eagle medium (DMEM) (Welgene, Daegu, South Korea) supplemented with 10% fetal bovine serum (FBS) (Gibco) and 1% penicillin at 37°C in humidified 5% CO2. Cells (2 × 10^5 cells well^−1) were seeded into DMEM supplemented with 10% FBS medium in a 96-well plate. The MTT assay was performed after culturing the cells in 96-well plates at a density of 2 × 10^5 cells well^−1, followed by treatment with serially diluted PN5, magainin 2, and melittin. After 24 h, the medium was discarded, and 100 μL DMEM and 10% FBS medium containing 0.5 mg mL^−1 MTT were added to each well. After 4 h of incubation, the medium was discarded and dimethyl sulfoxide was added to each well to solubilize the formazan. The optical densities at 570 and 650 nm (OD570 and OD650, respectively) of the treated cells were compared to those of control cells. The hemolytic activity of the peptides was evaluated as the release of hemoglobin from an 8% mRBC suspension. A 100-μL aliquot of the 8% mRBC suspension was added to the wells of a 96-well plate, and 100 μL of peptide solution in phosphate-buffered saline (PBS) was added at a final peptide concentration of 200 μM. After incubation for 1 h at 37°C with shaking (50 rpm), the suspensions were centrifuged at 1,000 × g for 5 min. The absorbance of the supernatant was measured at 414 nm using a Versa Max microplate reader (Molecular Devices). As a control, no hemolysis and complete hemolysis were determined in PBS and 0.1% Triton X-100, respectively. The degree of hemolysis was calculated using the following equation as described in reference: %hemolysis=[(A414withpeptide-A414withPBS)/(A414with0.1%TritonX-100-A414 with PBS)] × 100

FKFLARTGKFL-NH2 [PN5] was tested, and the “toxicity, MTT assay” value was “did not show toxicity”.
